Source: US8096982B2, “Method and apparatus to enhance optical transparency of biological tissues” (priority 1998, dated 2012)

Legend:
[1] = system: porcine sclera; experiment: Diffuse transmission through excised porcine sclera before and after submersion in clarifying agent; conditions: maximum increase, at 750 nm, range 350-750 nm
Method: Porcine eyes were enucleated immediately post-mortem, and were transported to the laboratory in a wet gauze pad, held at 4° C. during transport in a well-insulated cooler. Each eye was inflated with saline. Limbal conjunctiva and Tenons capsule were dissected and excised using a pair of blunt Wescott scissors. A No. 64 Beaver blade was then used to outline 20 mm×20 mm sections of the sclera from the limbus to the equator of the globe. Incisions were deepened to the supra-choroidal space. Sections of sclera were then lifted off the intact choroid and ciliary body. Scleral thickness was measured and was determined to be 1.65 mm on average.
Three prepared sections of sclera were each then placed between quartz slides, and then between two flat aluminum plates. The tissue sample assembly was then fixed against the input port of a diffuse reflectance accessory (integrating sphere) of a Varian Cary 5E™ UV-Vis-NIR spectrophotometer, and diffuse transmission was measured for wavelengths ranging from 350 nm to 750 nm. The three tissue samples were then submerged in separate containers of glycerol, the first being submerged for 5 minutes, the second for 10 minutes, and the third for 15 minutes. Each sample was then again placed in the tissue assembly and was fixed against the input port of the diffuse reflectance accessory of the spectrophotometer, and the diffuse transmission was measured again over the same wavelength range as above. These measurements were also carried out, using three other scleral samples, and diatrizoate meglumine acid as the IRIM agent.

[2] = Optical transmission characteristics of the agent in a cuvette (UV-Vis-NIR spectrophotometer); format: physicochemical
Method: Diatrizoate meglumine acid, which is commercially known as Hypaque®, is a radiographic injection solution. […] In an experiment, a cuvette was filled with diatrizoate meglumine acid and its optical transmission characteristics were evaluated using a Varian CARY 5E™ UV-Vis-NIR spectrophotometer.

[3] = system: sclera; format: in vivo, rabbit; conditions: for signs of inflammation on follow up examination: rabbit, in vivo; for time for sclera to turn clear: topical drops on exposed sclera, conjunctiva surgically separated
Method: In order to assess the longitudinal effects of topical administration of glycerol or diatrizoate meglumine acid on the sclera, in-vivo experiments were carried out on two rabbits, and the eyes were examined for signs of inflammation once a day for approximately 1 week.
Each rabbit was put under anesthesia using an intra-muscular injection of Rompin® and Ketamine®. The conjunctiva serves as the permeability barrier for the sclera, and therefore, the conjunctiva was surgically separated from the sclera and the distal surface of the sclera was exposed. Topical drops of glycerol were administered on one eye, and of diatrizoate meglumine acid in the contra-lateral eye, for both rabbits. In the case of glycerol, the sclera turned clear, almost instantaneously (in less than 5 seconds), whereas in the case of diatrizoate meglumine acid, the sclera turned clear in approximately 1 minute. The conjunctiva was stretched over the sclera, again, and stay sutures were used to re-attach the conjunctiva to the limbal region. Ocumycing was administered topically to both eyes which had undergone surgery, to prevent infection. After approximately 5-10 minutes, the sclera in both eyes became opaque, again.

[4] = system: human skin; conditions: approximately 8 minutes after topical administration; stratum corneum tape-stripped; 480-800 nm
Method: Two skin surfaces on the forearm were shaved and cleaned prior to measurements. A tape-strip method was used to remove the stratum corneum. […] The topical drugs administered formed an approximate circle of 1 cm in diameter. The drugs were left to diffuse into the tissue for approximately 8 minutes.
Surface reflectance measurements were made immediately after tape stripping of the skin (prior to topical administration of the drugs), and subsequently, approximately 8 minutes after topical administration of the drugs. A CSI Portable Diffuse Reflectance Spectrometer, developed by Canfield Scientific Instruments, Inc. (Fairfield, N.J.), was used for these surface measurements. […] One leg of the bifurcated fiber optic bundle is coupled to the lamp and the other leg is coupled to the spectrometer. The joined end of the fiber bundle (approximately 3 mm in diameter) was placed in contact with the skin surface from which measurements were made. The measurements were made across a 330 nm to 840 nm spectral range, with a 0.5 nm resolution. The integration time for the measurements was set at 50 kHz.
The tape stripping of the skin causes a mild irritation of the skin, leading to a transient erythema.

[5] = system: edematous corneas; conditions: glycerol applied topically in concentrations from 50% to 100%; cited from earlier work

SMILES | increase in diffuse transmission through the sclera ([1]; submerged 5 minutes) | increase in diffuse transmission through the sclera ([1]; submerged 10 minutes) | increase in diffuse transmission through the sclera ([1]; submerged 15 minutes) | optical transmission ([2]; wavelengths above 400 nm) | optical transmission ([2]; wavelengths below approximately 400 nm) | signs of inflammation on follow up examination [3] | time for sclera to turn clear [3] | increase in absorbance of tissue, in-vivo [4] | clearing of edematous corneas following topical administration [5]
CC(=O)Nc1c(I)c(NC(C)=O)c(I)c(C(=O)O)c1I.CNC[C@H](O)[C@@H](O)[C@H](O)[C@H](O)CO [diatrizoate meglumine acid] | up to 200% | ≤ 395% | ≤ 975% | very high transmission | very low transmission | no signs of inflammation | approximately 1 minute |  | 
OCC(O)CO [glycerol] | up to 240% | ≤ 660% | ≤ 1090% |  |  | no signs of inflammation | less than 5 seconds | up to 60.5% | effective in clearing edematous corneas, within two minutes
